Test results published in patent publication US12594270B2, “Schizophrenic disorder treatment using combination therapy” (Cambridge Cognition Limited, priority 2019, dated 2026).

What was measured:
C57BL/6 mice = experiment: MK801 induced abnormally persistent latent inhibition; type: in vivo; details: 4 tone-shock pairings to produce low LI
Method: C57BL/6 mice will be used to investigate latent inhibition (LI) conditioned emotional response cessation of drinking model in mice as described in, e.g., Bay-Richter, et al., Enhanced Latent Inhibition in Dopamine Receptor-Deficient Mice is Sex-Specific for the D1 but not D2 Receptor Subtype: Implications for Antipsychotic Drug Action, Int. J. Neuropsychopharmacol. […] On Day 1 to Day 6, animals will undergo lick training where mice will have access to water in a chamber for 15 minutes and the number of licks per animal will be recorded. […] One group will receive 20 presentations [determined from prior experiments to produce reduced LI in controls] of a 5 second 85 dB tone with a 15 second inter-stimulus interval (pre-exposed group, PE); a control group of non-pre-exposed (NPE) mice will be placed in a testing chamber with access to water withdrawn for an identical period of time but will not receive a tone pre-exposure. […] Number of licks for each animal will be recorded and time taken to complete 80-90 licks (A) and 90-100 licks (B) recorded. […] A suppression ratio (SR) will be calculated according to the formula A/(A+B) yielding a scale of […]. […]
In a sixth series of experiments, the ability of the combined Tropisetron and Varenicline treatment to reverse the MK801 induced abnormally persistent latent inhibition effect will be assessed. […]

[1] = cited from earlier work

Row | Structure (SMILES) | effect of MK801 on latent inhibition (C57BL/6 mice) | absorption from the gastrointestinal tract ([1]; background statement) | off-target gastrointestinal side effects ([1]; chronic administration, due to 5-HT3 receptor inhibitory activity) | cognitive effects in patients with schizophrenia ([1]; patients with schizophrenia, background statement)
1 | C[C@]12N[C@H](Cc3ccccc31)c1ccccc12 [MK801] | produce abnormally persistent latent inhibition |  |  | 
2 | CN1[C@@H]2CC[C@H]1C[C@@H](OC(=O)c1c[nH]c3ccccc13)C2 [Tropisetron] |  | almost completely absorbed | a reduction in gut transit and constipation | some pro-cognitive effects
